# Where “and” joins values, the source holds several entries; their conditions need not be identical. Identical values can stand only once.
# What was measured:
# platelets = assay: Clinical trial, metastatic pancreatic cancer: platelet count / thrombocytopenia grade; assay type: in vivo, human; design: Platelet count at start of cycle, Cycle 4 / Platelet count: unit: ×10^3/μl blood
# Text: Male and non-pregnant, non-lactating, female patients, aged 18 to 75, with histologically confirmed metastatic adenocarcinoma of the pancreas were enrolled in the trial. […] Treatment consisted of a series of 28-day cycles, wherein the last day of one cycle (e.g., day 28, cycle 1) was immediately followed by the first day of the next cycle (e.g., day 1, cycle 2). […] Nab-paclitaxel and gemcitabine therapy was given as described in the prescribing information for Abraxane® and Gemzar®. See also, Von Hoff et al., 2011, J. […] As a substantially non-anticoagulant heparinoid, ODSH can be administered at a dose that is greater than the fully anticoagulant dose of unfractionated heparin, without concern for anticoagulant effect, as shown in the Results below. An initial run-in period was conducted in which ten patients were treated with the gemcitabine, nab-paclitaxel, and ODSH regimen described above. After all ten patients had completed at least one 28-day cycle, the data were reviewed and an open-label randomized study initiated, with two arms (ODSH arm and Control arm). In the ODSH arm, the dosing regimen was the same as in the run-in period (gemcitabine, nab-paclitaxel, and ODSH). In the Control arm, patients were given the same gemcitabine and nab-paclitaxel regimen as in the run-in period, but without ODSH. […] Platelet counts, total white blood cell counts, and absolute neutrophil counts were performed. Grading of thrombocytopenia and/or neutropenia was performed according to the following standards: [table]
# [1] = assay type: in vivo, human
# Description: (§1) Treatment consisted of a series of 28-day cycles, wherein the last day of one cycle (e.g., day 28, cycle 1) was immediately followed by the first day of the next cycle (e.g., day 1, cycle 2). In each 28-day treatment cycle, patients were dosed at days 1, 8, and 15 (three weeks of medication followed by one week of rest) as follows. First, nab-paclitaxel at 125 mg/m^2 was administered as an intravenous infusion over 30 minutes. […] Nab-paclitaxel and gemcitabine therapy was given as described in the prescribing information for Abraxane® and Gemzar®. See also, Von Hoff et al., 2011, J. Clinical Oncology 29:1-7).
# (§2) As a substantially non-anticoagulant heparinoid, ODSH can be administered at a dose that is greater than the fully anticoagulant dose of unfractionated heparin, without concern for anticoagulant effect, as shown in the Results below.
# [2] = tested on: metastatic adenocarcinoma of the pancreas; assay: Clinical trial: tumor response and disease status (RECIST 1.1), ECOG performance status; assay type: in vivo, human
# Description: as §1, §2
# Blood samples were also tested on day 1 of each treatment cycle for the serum level of CA19-9 (carbohydrate antigen 19-9) a marker used to assess the efficacy of the chemotherapy agents in treating pancreatic cancer. See. e.g., Maeda, 2011, Int. J. Clin. Oncol. 16(5):539-45. Reduction in the serum level of CA19-9 is indicative of chemotherapeutic efficacy against the pancreatic cancer. Tumor response and disease status was measured according to Response Evaluation Criteria in Solid Tumors (RECIST) Guidelines Version 1.1. Eur. J. Cancer, 2009, 45:228-247. A reduction of at least 30% in the sum of the diameters of target lesions (measurable lesions present at screening, up to 2 lesions per involved organ) was scored as a partial response. Patients were scored as having stable disease where the smallest sum of target lesion diameters neither decreased nor increased sufficiently to qualify as a partial response or progressive disease.
# [3] = day 15, first cycle, ODSH adjunct to gemcitabine/nab-paclitaxel
# [4] = ten patients, ODSH adjunct to gemcitabine/nab-paclitaxel
substance,measurement,setting,value
"substantially 2-O, 3-O desulfated heparin [ODSH]","Platelet count at start of cycle, Cycle 6","platelets; day 1 of cycle 6, ODSH adjunctive to gemcitabine and nab-paclitaxel, individual patients",489 and 371 and 503 and 275 and 288
same,"Platelet count at start of cycle, Cycle 7","platelets; day 1 of cycle 7, ODSH adjunctive to gemcitabine and nab-paclitaxel, individual patients",454
same,Patients with no more than mild thrombocytopenia after two doses of treatment,platelets; [3],90%
same,Patients with no thrombocytopenia after two doses of treatment,platelets; [3],40%
same,Patients with no thrombocytopenia after five doses of treatment,"platelets; day 15 of cycle 2, ODSH adjunct to gemcitabine/nab-paclitaxel",7 out of 10
same,Patients thrombocytopenic at the beginning of cycles 2 and 3,"platelets; mild (Grade 1), after three or six doses of gemcitabine and nab-paclitaxel with ODSH",one
same,Platelet count,"platelets; open-label randomized trial, per arm, Cycle 1 Day 1",248
same,Platelet count,"platelets; open-label randomized trial, per arm, Cycle 1 Day 15",143
same,Platelet count,"platelets; open-label randomized trial, per arm, Cycle 2 Day 1",336
same,Platelet count,"platelets; open-label randomized trial, per arm, Cycle 2 Day 15",135
same,Platelet count,"platelets; open-label randomized trial, per arm, Cycle 3 Day 1",393
same,Platelet count,"platelets; open-label randomized trial, per arm, Cycle 3 Day 15",171
same,Platelet count,"platelets; open-label randomized trial, per arm, Cycle 4 Day 1",404
same,Platelet count,"platelets; open-label randomized trial, per arm, Cycle 4 Day 15",156
same,Platelet count,"platelets; open-label randomized trial, per arm, Cycle 5 Day 1",389
same,Platelet count,"platelets; open-label randomized trial, per arm, Cycle 5 Day 15",121
same,Platelet count,"platelets; open-label randomized trial, per arm, Cycle 6 Day 1",371
same,Platelet count,"platelets; open-label randomized trial, per arm, Cycle 6 Day 15",132
same,"Platelet Count, Screen","platelets; prior to entry into the clinical trial protocol, individual patients",321 ×10^3/μl blood and 187 ×10^3/μl blood and 269 ×10^3/μl blood and 267 ×10^3/μl blood and 166 ×10^3/μl blood and 271 ×10^3/μl blood and 204 ×10^3/μl blood and 505 ×10^3/μl blood
same,Platelet count,"platelets; randomized stage, individual patients, Cycle 1 Day 15",231 and 216 and 121 and 103 and 199 and 172 and 162 and 232
same,Platelet count,"platelets; randomized stage, individual patients, Cycle 2 Day 15",110 and 156 and 95 and 74 and 92 and 165
same,Platelet count,"platelets; randomized stage, individual patients, Cycle 3 Day 15",124 and 74 and 76 and 96
same,Platelet count,"platelets; randomized stage, individual patients, Cycle 4 Day 15",31 and 138
same,"Platelet counts, ODSH arm vs Control arm","platelets; randomized stage, gemcitabine + nab-paclitaxel with or without ODSH",statistically significant difference
same,"Median and mean platelet counts at day 15 of the first cycle, ODSH arm vs patients not receiving ODSH","platelets; randomized trial, 5 patients in each arm, p=0.013 unpaired t-test",significantly higher
same,"Platelet recovery by day 1 of a subsequent cycle, ODSH arm vs control arm","platelets; randomized trial, p=0.0004 after 6 cycles, unpaired t-test",enhanced
same,Effect on patient weight,[1]; ODSH adjunct to gemcitabine/nab-paclitaxel,minimum weight loss or even some weight gain
same,Weight,"[1]; individual patients, ODSH adjunctive to gemcitabine and nab-paclitaxel, Cycle 6 Day 1",176 pounds and 133 pounds and 157 pounds
same,ECOG Performance status,"[2]; 7 evaluable patients, after 8 weeks in the trial (day 1 of cycle 3)",stable or improved
same,Patients with clinical or radiographic evidence of progressive disease,[2]; after three or four full cycles of treatment,no patient
same,Patients with partial response (RECIST),[2]; [4],5 patients
same,Patients with stable disease (RECIST),[2]; [4],5 patients
